Test results as given in US7964732B2, “Substituted bicyclocarboxyamide compounds” (Pfizer Inc., priority 2006, dated 2011).

Biological target: T1, human VR1 (Homo sapiens, UniProt Q8NER1)
T1 construct: host or cells: cells that express human VR1 receptors (cell type not specified)
Experiment: Human VR1 antagonist assay (Ca2+ imaging assay using human VR1 highly expressing cells)
Format: cell-based
Conditions: intracellular Ca2+ imaging (fura-2)
Text: VR1 antagonistic activity can be determined by the Ca^2+ imaging assay using human VR1 highly expressing cells. The cells that highly express human VR1 receptors are obtainable from several different conventional methods. The one standard method is cloning from human Dorsal Root Ganglion (DRG) or kidney according to the methods such as described in the journal article; Nature, 389, pp 816-824, 1997. Alternatively VR1 receptors highly expressing human keratinocytes are also known and published in the journal article (Biochemical and Biophysical Research Communications, 291, pp 124-129, 2002). […] Furthermore, the method to up regulate human VR1 gene, which is usually a silent gene or don't produce detectable level of VR1 receptors, is also available to obtain propriety cells. Such genetic modification method was described in detail; Nat. Biotechnol., 19, pp 440-445, 2001.
The cells that express human VR1 receptors were maintained in culture flask at 37° C. in an environment containing 5% CO2 until use in the assay. The intracellular Ca^2+ imaging assay to determine VR1 antagonistic activities were done by following procedures.
The culture medium was removed from the flask and fura-2/AM fluorescent calcium indicator was added to the flask at a concentration of 5 μM in the medium. The flask was placed in CO2 incubator and incubated for 1 hour. Then the cells expressing the human VR1 receptors were detached from the flask follow by washing with phosphate buffer saline, PBS(−) and re-suspended in assay buffer. The 80 μl of aliquot of cell suspension (3.75×10^5 cells/ml) was added to the assay plate and the cells were spun down by centrifuge (950 rpm, 20° C., 3 minutes).
Compounds of the examples were tested in the Human VR1 antagonist assay described above.
The capsaicin-induced changes in the intracellular calcium concentration were monitored using FDSS 6000 (Hamamatsu Photonics, Japan), a fluorometric imaging system. The cell suspension in Krebs-Ringer HEPES (KRH) buffer (115 mM NaCl, 5.4 mM KCl, 1 mM MgSO4, 1.8 mM CaCl2, 11 mM D-Glucose, 25 mM HEPES, 0.96 mM Na2HPO4, pH 7.3) were pre-incubated with varying concentrations of the test compounds or KRH buffer (buffer control) for 15 minutes at room temperature under the dark condition. Then capsaicin solution, which gives 300 nM in assay mixture, was automatically added to the assay plate by the FDSS 6000.
The Acid-induced changes in the intracellular calcium concentration were monitored using FDSS 6000 (Hamamatsu Photonics, Japan), a fluorometric imaging system. The cell suspension in resting buffer (HBSS supplemented with 10 mM HEPES, pH 7.4) were pre-incubated with varying concentrations of the test compounds or resting buffer (buffer control) for 15 minutes at room temperature under the dark condition. The cells were automatically added the stimulating solution (HBSS supplemented with MES, final assay buffer pH5.8) by the FDSS 6000.
The monitoring of the changes in the fluorescence signals (λex=340 nm/380 nm, λem=510-520 nm) was initiated at 1 minute prior to the addition of capsaicin solution or acidic buffer and continued for 5 minute.

T1 sequence (Q8NER1 whole entry): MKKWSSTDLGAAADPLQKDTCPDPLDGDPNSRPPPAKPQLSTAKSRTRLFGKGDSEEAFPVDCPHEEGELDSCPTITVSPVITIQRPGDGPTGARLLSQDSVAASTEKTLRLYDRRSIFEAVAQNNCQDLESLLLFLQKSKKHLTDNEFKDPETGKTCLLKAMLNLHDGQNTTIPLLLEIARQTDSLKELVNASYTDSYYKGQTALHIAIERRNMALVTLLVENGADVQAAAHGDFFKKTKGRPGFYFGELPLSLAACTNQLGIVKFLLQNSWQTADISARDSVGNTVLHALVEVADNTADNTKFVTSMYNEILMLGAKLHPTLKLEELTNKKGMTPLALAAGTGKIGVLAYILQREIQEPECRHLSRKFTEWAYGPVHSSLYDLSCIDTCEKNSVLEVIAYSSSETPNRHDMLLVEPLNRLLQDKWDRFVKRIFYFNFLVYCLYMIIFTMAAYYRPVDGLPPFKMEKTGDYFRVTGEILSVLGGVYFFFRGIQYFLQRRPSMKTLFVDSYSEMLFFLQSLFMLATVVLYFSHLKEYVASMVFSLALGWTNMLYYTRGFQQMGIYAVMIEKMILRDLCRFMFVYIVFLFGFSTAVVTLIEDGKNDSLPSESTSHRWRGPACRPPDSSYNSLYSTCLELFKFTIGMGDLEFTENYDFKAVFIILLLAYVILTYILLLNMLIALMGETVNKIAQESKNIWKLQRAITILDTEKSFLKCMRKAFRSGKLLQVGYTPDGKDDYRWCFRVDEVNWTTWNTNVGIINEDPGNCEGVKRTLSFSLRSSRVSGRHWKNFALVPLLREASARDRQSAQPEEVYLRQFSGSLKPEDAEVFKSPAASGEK

**Q.** For Cc1c([C@@H](C)NC(=O)c2ccc3cc(C(C)(O)C(F)(F)F)ccc3c2)cnn1C (mixture of isomers) [Example 31, N-[(1R)-1-(1,5-dimethyl-1H-pyrazol-4-yl)ethyl]-6-(2,2,2-trifluoro-1-hydroxy-1-methylethyl)-2-naphthamide], which IC50 is on record?
**A.** 177 nM

**Q.** With CCC(NC(=O)c1ccc2nc(C(C)(C)C(F)(F)F)ccc2c1)c1cnn(C)c1C (racemic) [Example 7, N-[1-(1,5-dimethyl-1H-pyrazol-4-yl)propyl]-2-(2,2,2-trifluoro-1,1-dimethylethyl)quinoline-6-carboxamide] as the molecule, how does the IC50 read?
**A.** 145 nM

**Q.** How did the IC50 turn out when CC[C@@H](NC(=O)c1ccc2nc(C(C)(C)C(F)(F)F)ccc2c1)c1cnn(C)c1C (single isomer, unassigned) [Example 8] was run?
**A.** 66 nM

**Q.** With Cc1c([C@@H](C)NC(=O)c2ccc3cc([C@@](C)(O)C(F)(F)F)ccc3c2)cnn1C (single isomer, unassigned) [Example 32] as the molecule, how does the IC50 read?
**A.** 52.7 nM

**Q.** Cc1c(CNC(=O)c2ccc3nc(C(C)(C)C(F)(F)F)ccc3c2)cnn1C [Example 2, N-[(1,5-dimethyl-1H-pyrazol-4-yl)methyl]-2-(2,2,2-trifluoro-1,1-dimethylethyl)quinoline-6-carboxamide] was tested. Which IC50 did it give?
**A.** 261 nM

**Q.** For C[C@@H](NC(=O)c1ccc2nc(C(C)(C)C(F)(F)F)ccc2c1)c1cnn(C)c1C#N [Example 3, (R)-N-(1-(5-cyano-1-methyl-1H-pyrazol-4-yl)ethyl)-2-(2,2,2-trifluoro-1,1-dimethylethyl)quinoline-6-carboxamide], which IC50 is on record?
**A.** 322 nM

**Q.** Which IC50 does the source give for C[C@@H](NC(=O)c1ccc2nc(C(C)(C)C(F)(F)F)ccc2c1)c1cnn(C)c1CO [Example 4, (R)-N-(1-(5-(hydroxymethyl)-1-methyl-1H-pyrazol-4-yl)ethyl)-2-(2,2,2-trifluoro-1,1-dimethylethyl)quinoline-6-carboxamide] here?
**A.** 607 nM

**Q.** Which IC50 does the source give for Cc1c(C(C)NC(=O)c2ccc3nc(C(C)(C)C(F)(F)F)ccc3c2)cnn1CC(F)(F)F (stereo not drawn) [Example 5, N-(1-(5-methyl-1-(2,2,2-trifluoroethyl)-1H-pyrazol-4-yl)ethyl)-2-(2,2,2-trifluoro-1,1-dimethylethyl)quinoline-6-carboxamide] here?
**A.** 44.1 nM

**Q.** Which IC50 does the source give for Cc1[nH]ncc1C(C)NC(=O)c1ccc2nc(C(C)(C)C(F)(F)F)ccc2c1 (stereo not drawn) [Example 9, N-[1-(5-methyl-1H-pyrazol-4-yl)ethyl]-2-(2,2,2-trifluoro-1,1-dimethylethyl)quinoline-6-carboxamide] here?
**A.** 323 nM

**Q.** For Cc1c(C(C)NC(=O)c2ccc3nc(C(C)(C)C(F)(F)F)ccc3c2)cnn1CCO (stereo not drawn) [Example 11, N-(1-(1-(2-hydroxyethyl)-5-methyl-1H-pyrazol-4-yl)ethyl)-2-(2,2,2-trifluoro-1,1-dimethylethyl)quinoline-6-carboxamide], which IC50 is on record?
**A.** 16.4 nM

**Q.** With Cc1c(C(C)NC(=O)c2ccc3nc(C(C)(C)C(F)(F)F)ccc3c2)cnn1CC(C)(C)O (stereo not drawn) [Example 12, N-(1-(1-(2-hydroxy-2-methylpropyl)-5-methyl-1H-pyrazol-4-yl)ethyl)-2-(2,2,2-trifluoro-1,1-dimethylethyl)quinoline-6-carboxamide] as the molecule, how does the IC50 read?
**A.** 79.9 nM

**Q.** With Cc1c([C@@H](C)NC(=O)c2ccc3nc(C4(C)CC4)ccc3c2)cnn1C [Example 13, N-[(1R)-1-(1,5-dimethyl-1H-pyrazol-4-yl)ethyl]-2-(1-methylcyclopropyl) quinoline-6-carboxamide] as the molecule, how does the IC50 read?
**A.** 313 nM

**Q.** With Cc1c([C@@H](C)NC(=O)c2ccc3nc(C(C)(O)C(F)(F)F)ccc3c2)cnn1C (stereo partly drawn) [Example 14] as the molecule, how does the IC50 read?
**A.** 63.7 nM

**Q.** How did the IC50 turn out when CCn1ncc(CNC(=O)c2ccc3nc(C(C)(C)C(F)(F)F)ccc3c2)c1C [Example 15, N-[(1-ethyl-5-methyl-1H-pyrazol-4-yl)methyl]-2-(2,2,2-trifluoro-1,1-dimethylethyl)quinoline-6-carboxamide] was run?
**A.** 71.7 nM

**Q.** For CCn1ncc(C(C)NC(=O)c2ccc3nc(C(C)(C)C(F)(F)F)ccc3c2)c1C (stereo not drawn) [Example 16, N-[1-(1-ethyl-5-methyl-1H-pyrazol-4-yl)ethyl]-2-(2,2,2-trifluoro-1,1-dimethylethyl)quinoline-6-carboxamide], which IC50 is on record?
**A.** 28.9 nM

**Q.** How did the IC50 turn out when Cc1c(C(C)NC(=O)c2ccc3nc(C(C)(C)C(F)(F)F)ccc3c2)cnn1C1CCC1 (stereo not drawn) [Example 17] was run?
**A.** 124 nM

**Q.** C[C@@H](NC(=O)c1ccc2nc(C(C)(C)C(F)(F)F)ccc2c1)c1cnn(C)c1Cl [Example 18a, (R)-N-(1-(5-chloro-1-methyl-1H-pyrazol-4-yl)ethyl)-2-(2,2,2-trifluoro-1,1-dimethylethyl)quinoline-6-carboxamide] was tested. Which IC50 did it give?
**A.** 3 nM

**Q.** Which IC50 does the source give for Cc1c([C@@H](C)NC(=O)c2ccc3nc(C(F)(F)F)ccc3c2)cnn1C [Example 23, (R)-N-(1-(1,5-dimethyl-1H-pyrazol-4-yl)ethyl)-2-(trifluoromethyl) quinoline-6-carboxamide] here?
**A.** 121 nM

**Q.** How did the IC50 turn out when Cc1c(C(C)NC(=O)c2ccc3cc(C(C)(C)C)ccc3c2)cnn1C (stereo not drawn) [Example 24, 6-tert-butyl-N-[1-(1,5-dimethyl-1H-pyrazol-4-yl)ethyl]-2-naphthamide] was run?
**A.** 23 nM

**Q.** For Cc1n[nH]c(C)c1CNC(=O)c1ccc2cc(C(C)(C)C)ccc2c1 [Example 25, 6-tert-butyl-N-[(3,5-dimethyl-1H-pyrazol-4-yl)methyl]-2-naphthamide], which IC50 is on record?
**A.** 118 nM

**Q.** For Cc1nn(C)cc1CNC(=O)c1ccc2cc(C(C)(C)C)ccc2c1 [Example 26, 6-tert-butyl-N-[(1,3-dimethyl-1H-pyrazol-4-yl)methyl]-2-naphthamide], which IC50 is on record?
**A.** 443 nM

**Q.** How did the IC50 turn out when Cc1c(CNC(=O)c2ccc3cc(C(C)(C)C)ccc3c2)cnn1C [Example 27, 6-tert-butyl-N-[(1,5-dimethyl-1H-pyrazol-4-yl)methyl]-2-naphthamide] was run?
**A.** 73 nM

**Q.** CCC(NC(=O)c1ccc2cc(C(C)(C)C)ccc2c1)c1cnn(C)c1C (stereo not drawn) [Example 28, 6-tert-butyl-N-(1-(1,5-dimethyl-1H-pyrazol-4-yl)propyl)-2-naphthamide] was tested. Which IC50 did it give?
**A.** 57.4 nM

**Q.** For Cc1c(C(C)NC(=O)c2ccc3cc(C(F)(F)F)ccc3c2)cnn1C (stereo not drawn) [Example 29, N-(1-(1,5-dimethyl-1H-pyrazol-4-yl)ethyl)-6-(trifluoromethyl)-2-naphthamide], which IC50 is on record?
**A.** 189 nM

**Q.** How did the IC50 turn out when Cc1c([C@@H](C)NC(=O)c2ccc3cc(C4(C)CC4)ccc3c2)cnn1C [Example 30, N-[(1R)-1-(1,5-dimethyl-1H-pyrazol-4-yl)ethyl]-6-(1-methylcyclopropyl)-2-naphthamide] was run?
**A.** 20.1 nM

**Q.** For Cc1c([C@@H](C)NC(=O)c2ccc3cc([C@](C)(O)C(F)(F)F)ccc3c2)cnn1C [Example 32a, N-[(1R)-1-(1,5-dimethyl-1H-pyrazol-4-yl)ethyl]-6-[(1S)-2,2,2-trifluoro-1-hydroxy-1-methylethyl]-2-naphthamide], which IC50 is on record?
**A.** 3190 nM

**Q.** Which IC50 does the source give for COC(C)(c1ccc2cc(C(=O)NC(C)c3cnn(C)c3C)ccc2c1)C(F)(F)F (stereo not drawn) [Example 33, N-[1-(1,5-dimethyl-1H-pyrazol-4-yl)ethyl]-6-(2,2,2-trifluoro-1-methoxy-1-methylethyl)-2-naphthamide] here?
**A.** 139 nM

**Q.** For Cc1c(CNC(=O)c2ccc3cc(C(C)(C)C)ccc3n2)cnn1C [Example 34, 6-tert-butyl-N-[(1,5-dimethyl-1H-pyrazol-4-yl)methyl]quinoline-2-carboxamide], which IC50 is on record?
**A.** 254 nM

**Q.** For Cc1nn(C)c(C)c1CNC(=O)c1ccc2cc(C(C)(C)C)ccc2c1 [Example 35, 6-tert-butyl-N-((1,3,5-trimethyl-1H-pyrazol-4-yl)methyl)-2-naphthamide], which IC50 is on record?
**A.** 1870 nM

**Q.** How did the IC50 turn out when Cn1cc(CNC(=O)c2ccc3cc(C(C)(C)C)ccc3c2)cn1 [Example 36] was run?
**A.** 3480 nM
